Consider 1 substance from patent US20040038888A1 (priority 2002, published 2004).

The test system of assay [1] is hippocampal NSC/neural progenitors cells. Briefly: PACAP/BrdU infusion, BrdU labelling of the dentate gyrus. It counts as in vivo, mouse. Conditions: 600 nM pump concentration, 0.5 μl/hr into the lateral ventricle, 3.5 days, relative to vehicle. As to the method: 10 week old male mice (C57B1/2), maintained on a 12 hr light/dark cycle with food and water ad libidum, were infused in the right lateral ventricle with PACAP38 (Bachem), using a Alzet pump (1007D), for 3,5 days or 7 days at a daily dose of 31 ng/day (600 nM PACAP pump concentration infused at a rate of 0.5 μl/hr). Bromodeoxyuridine (BrdU) (50 mg/ml) was also included in the infusion vehicle (0.9% saline containing 1 mg/ml mouse serum albumin (Sigma)) to enable measurement of proliferation by quantitation of BrdU incorporation in the DNA. The group of infused with either PACAP/BrdU or vehicle/BrdU for 3,5 days and sacrificed at this time point. […]
Brains were cut into 14-μm coronal sections using a cryostat-microtome. […] After 1 hour of washing, the BrdU-antibody complex was detected using 0.05% diaminobenzidine with 0.01% H2O2, and counterstained with Hematoxylin. […]
For all BrdU labelling experiments, three to six sections per animal were analysed. […] The number of BrdU-labelled cells per area of dentate granule cell layer was counted manually. […] BrdU-positive cells were counted along 2×250 micrometer strips of the lateral ventricle wall (see FIG. 18). Area measurements of both the dentate granule cell layer and the “counted” region of the lateral ventricle wall (including the ependymal cell layer and subventricular zone) were made from each slide used for the cell counts. […]
Background: Uptake of a labelled nucleoside into DNA is a usual measure of proliferation.

The subject of the next assay is CREB phosphorylation. Briefly: Western blot of phosphorylated CREB, adult mouse NSC, non-adherent. In kind it is cell-based. To be noted: 10 nM PACAP. Here is the method: Adult mouse NSC and aHNSC were prepared and cultured as stated in Example 2 (Method A) and Example 1 (Method A). Cultures were exposed to either 10 nM PACAP or EGF (1 nM) and FGF (1 nM) for the times indicated. After treatment, the cells were lysed in lysis buffer, as shown in Patrone et al. (Patrone, Andersson et al. 1999). DNA content was detemined by the use of a Pico Green-kit for ds DNA quantitation of cell extracts. Total protein measurements were performed with Nano Orange-kit. Equal amounts of protein were run on a gradient gel 4-12% Bis-Tris gel (NuPage/Mops buffer) and transferred to a nitrocellulose membrane. Western blot was performed and phosphorylated CREB was labelled using a rabbit anti phospho-CREB (1:1000, Upstate biotechnology), a secondary anti rabbit HRP antibodies (1:10.000). Phosphorylated CREB protein bands (43 kD) were detected using the ECL-kit (Amersham).

On to “pituitary adenylate cyclase-activating polypeptide [PACAP]”, for which the “proliferation in the ipsilateral dentate gyrus (BrdU positive cells/mm^2)” value in assay [1] is reported as “significant increase in proliferation”. For the same substance, the CREB phosphorylation entry in the assay with CREB phosphorylation (15 min exposure) was “upregulated”; in the assay on CREB phosphorylation (240 min) it was “return to basal levels”.
